The values that follow come from PMC10467082, “Anti-Toxoplasma gondii Effects of Lipopeptide Derivatives of Lycosin-I” (Toxins, 2023).

“Also recorded” adds a separate entry of the source. Read-outs that look alike come from different tables or passages of the source. Peptide text beside a SMILES is read from it. * marks the point of attachment. Lauroyl = CCCCCCCCCCCC(=O)*

The subject of one series is IFN-γ. Type of series: in vivo, mouse. The protocol: (§1) Once T. gondii has infected a host, a number of inflammatory responses can be induced in the host to resist T. gondii invasion and proliferation. Therefore, we wanted to investigate the expression levels of anti-inflammatory and pro-inflammatory factors in the mice treated with lipopeptides. The expression levels of IFN-γ, TNF-α, IL-4 and IL-10 in the spleen tissues of mice after 5 days of treatment were determined via qRT-PCR (Figure 5). […] Compared to the PBS group, all treatment groups promoted the upregulation of the pro-inflammatory cytokines IFN-γ and TNF-α and the anti-inflammatory cytokine IL-4.
(§2) Total RNA was extracted from each sample using Total RNA Isolation Kit (ENOVA BIO Co., Ltd., Wuhan, China), in accordance with the manufacturer’s instructions. Reverse transcription of RNA into cDNA was performed using the PerfectStart Uni RT&qPCR Kit (TransGen Biotech Co., Ltd., Beijing, China) in accordance with the instructions. cDNA was used as a template for qRT-PCR using PerfectStart Uni RT&qPCR Kit (TransGen Biotech Co., Ltd., Beijing, China). Primers, listed in Table 2, were designed and synthesized by a biotechnology company (Sangon Biotech Co., Ltd., Shanghai, China). Analysis was performed using the comparative threshold cycle method (2^−∆∆Ct). The gene expression levels of genes were normalized to those of housekeeping genes (β-actin or GAPDH).

The subject of the next series is TNF-α. In kind it is in vivo, mouse. Here is the method: as §1, §2
In a further series the test system is IL-10. Type of series: in vivo, mouse. The protocol:
as §1, §2

A further series deals with IL-4. In kind it is in vivo, mouse. Here is the method:
as §1, §2

Series [1] has as its system T. gondii tachyzoites. As to the kind of experiment: Intracellular proliferation assay of tachyzoites in HFFs. Type of series: cell-based, Toxoplasma gondii. To be noted: 10 μM, 24 h. Here is the method: HFFs were seeded in 24-well plates (1 × 10^5 cells per well) with 14 mm coverslips and incubated for 24 h. The HFFs were infected with fresh tachyzoites at a MOI of 5 for 2 h. The HFFs were then washed twice with PBS to remove extracellular tachyzoites and then treated with Lycosin-I (5 μM, 10 μM), L-C12 (5 μM, 10 μM), L-an (5 μM, 10 μM), SDZ (10 μM, positive control) and DMEM (negative control) for 24 h each. The HFFs were then washed twice with PBS, fixed with methanol for 5 min, and then stained with Giemsa for 15 min. The coverslips were observed under a light microscope to count the number of tachyzoites in 100 parasitophorous vacuoles (PVs). Three independent experiments were carried out.

The subject of the next series is RH strain of T. gondii. Type of series: in vivo, mouse. Here is the method:
To evaluate the anti-T. gondii effect of lipopeptides in vivo, we established a mouse model acutely infected with the RH strain of T. gondii. Forty 8-week-old female BALB/c mice weighing 17–19 g were randomly divided into 5 groups (n = 8 per group) and intraperitoneally injected with 1 × 10^3 tachyzoites per mouse. Lycosin-I, L-C12, L-an and sulfadiazine (SDZ) were dissolved in PBS, respectively. As these peptides are small linear peptides that are easily degraded by pepsin; mice were treated with these peptides via intraperitoneal injection (the same way that the mice were infected with T. gondii) rather than oral gavage. After 4 h of infection, mice were traperitoneally injected with 4 mg/kg of Lycosin-I, L-C12, L-an and sulfadiazine solution (once a day) for 7 days. Mice in the negative control group were treated with PBS. Mice in this condition observed daily and the time of death was recorded. The experiment was approved by the Ethics Committee of the School of Basic Medicine of Central South University (approval number: 2021-KT24).

The test system of series [2] is T. gondii tachyzoites. Briefly: Invasion assay of tachyzoites into HFFs. Type of series: cell-based, Toxoplasma gondii. To be noted: tachyzoites pretreated 2 h at 10 μM, HFFs infected MOI 5 for 2 h. Here is the method: The HFF cells were seeded in 24-well plates with 14 mm coverslips (1 × 10^5 cells per well) and incubated for 24 h. Fresh tachyzoites were obtained aseptically from the peritoneal fluid of the KM mouse acutely infected with T. gondii. The tachyzoites were treated with Lycosin-I (5 μM, 10 μM), L-C12 (5 μM, 10 μM), L-an (5 μM, 10 μM), SDZ (10 μM, positive control) and DMEM (negative control) for 2 h each. The HFFs were then infected with pre-treated tachyzoites at a multiplicity of infection (MOI) of 5 (tachyzoites/cells = 5). After 2 h, the previous complete medium was removed and the HFFs were washed twice with PBS to remove extracellular tachyzoites. They were then fixed with methanol for 5 min, and then stained with Giemsa for 15 min. The coverslips were examined under a light microscope. The invasion rate of tachyzoites was calculated by counting the number of cells invaded by tachyzoites and the total number of cells in 5 randomly selected fields. Three independent experiments were carried out.

Series [3] deals with T. gondii tachyzoites. In kind it is cell-based, Toxoplasma gondii. Here is the method:
The HFF cells were seeded in 6-well plates (1 × 10^6 cells per well) and incubated for 48–72 h. Cells in the 6-well plates were infected with 500 fresh tachyzoites per well for 2 h. The well in which cells were not infected with tachyzoites was considered the blank control group. Cells infected with tachyzoites were then treated with Lycosin-I (10 μM), L-C12 (10 μM), L-an (10 μM), SDZ (10 μM, positive control) and DMEM (negative control), respectively. After 7 days, HFFs in the plates were washed twice with PBS, fixed with methanol for 5 min, and then stained with crystal violet for 20 min. Six-well plates were washed with running water, dried, photographed, and then the number and area of plaques were counted using Photoshop version 2020. Three independent experiments were carried out.

Series [4] relates to Toxoplasma. Conditions: cited from earlier work. An excerpt: To evaluate the efficacy of the lipopeptides in vivo, we established a mouse model of acute T. gondii infection.
The test system of series [5] is Toxoplasma. To be noted: mouse; cited from earlier work. An excerpt:
We established a mouse model acutely infected with tachyzoites, recorded the survival time of the mice and determined the parasite load in the tissues of the mice. Lycosin-I and L-an can effectively prolong the survival time of mice.

Series [6] concerns T. gondii tachyzoites. To be noted: mouse, in vivo. Here is the method:
Therefore, the mice were treated with 4 mg/kg/day of SDZ or lipopetides for 7 days, and the survival time of the mice was closely monitored for 15 days. […] We also determined the parasite load in the peritoneal fluid and tissues of mice acutely infected with T. gondii after 5 days of treatment. The number of tachyzoites in the peritoneal fluid of the mice was directly counted using a blood cell counting plate (Figure 4B), while the expression of the surface antigen SAG1, a membrane surface protein specific to tachyzoites, was detected via qRT-PCR in the heart, liver, spleen, lung and brain of the mice (Figure 4C–G).
as §2

For series [7] the following is noted: mouse serum (b5) / 10% serum, 24 h, mass spectrometry; cited from earlier work. An excerpt: Cationic peptides with an α-helical structure found in venoms constitute a class of antimicrobial peptides (AMPs). In this class, amphiphilic peptides with net positive charges tend to adopt an α-helix structure when in contact with a hydrophilic/hydrophobic interface (such as the membrane of microorganisms), which helps the AMPs to insert into the cell membrane and disrupt the integrity of the cell membrane. Phospholipids on cell membranes are one of the targets of transmembrane peptides with an α -helical structure. […] The serum stability of Lycosin-I was in ...

Series [8] has as its system human foreskin fibroblasts (HFFs). Briefly: CCK-8 cell viability assay on host cells. Conditions: CCK-8, HFFs, 24 h; comparison with Lycosin-I where stated. In kind it is cell-based. The protocol:
HFF cells were seeded in 96-well plates (1 × 10^4 cells per well). After 24 h of incubation, the previous complete medium was removed and replaced with the new complete medium containing different concentrations (80–1.25 μM, twofold serial dilution) of lipopeptides. Cells were treated with the complete medium in one well as the control group (each group was set up with three wells). After 24 h, 10 μL of CCK-8 reagent was added to each well and then incubated for 2 h. The absorbance value was measured at 450 nm using a microplate reader. Three independent experiments were carried out.

Series [9] concerns T. gondii tachyzoites. As to the kind of experiment: Serum stability assay: serum incubation followed by trypan blue assay. To be noted: 100 μM in PBS containing 10% fetal bovine serum, 37 °C, 24 h; read-out tachyzoite mortality by trypan blue; three independent experiments. Type of series: in vitro ADME, Toxoplasma gondii. The protocol: To evaluate the difference of anti-T. gondii in the vitro between lipopeptides and Lycosin-I, we set up different concentration gradients, including 2.5 μM, 5 μM, 10 μM, 20 μM and 40 μM. The freshly obtained tachyzoites (3 × 10^6) were incubated with different concentrations of lipopeptides and PBS at room temperature for 2 h, then centrifuged at 3000 rbp for 8 min and the supernatant was discarded. The tachyzoite pellet was resuspended in PBS and mixed well. Then, the tachyzoite suspension was stained with 0.4% trypan blue staining solution for 5 min. Tachyzoite viability was observed under a light microscope (Motic China Group Co., Ltd., Xiamen, China), and five fields were randomly selected to calculate tachyzoite mortality. Three independent experiments were carried out.
A combination of serum incubation and a trypan blue assay was used to investigate whether or not the anti-Toxoplasma activity of lipopeptides and Lycosin-I was affected by serum. Briefly, stock solutions (1 mM) of Lycosin-I, L-C12 and L-an were diluted into 100 μM solutions in PBS containing 10% fetal bovine serum, and incubated at 37 °C for 24 h. Fresh tachyzoites were then treated with these solutions as described in the method in Section 5.3 for lipopeptide screening. Three independent experiments were carried out.

Where [10] appears, read: 4 mg/kg, after 5 days of treatment, qRT-PCR.
[11] abbreviates: 10 μM, 7 days, 500 tachyzoites per well, HFFs.

As to “H-KGWFKAMKSIAKFIAKEKLKEHL-OH [Lycosin-I]”, in the series with IFN-γ (setting [10]), the “expression of IFN-γ in spleen compared to PBS group” value was “promoted the expression”. Moreover, the “expression of TNF-α in spleen compared to PBS group” value in the series on TNF-α (setting [10]) is reported as “promoted the expression”. For the same compound, the “expression of IL-10 in spleen compared to PBS group” value in the series with IL-10 (setting [10]) is listed as “inhibited the upregulation of IL-10”. Besides, in the series on IL-4 (setting [10]), the “expression of IL-4 in spleen compared to PBS group” value is reported as “promoted IL-4 expression”. In addition, the “proliferation rate of tachyzoites in HFFs (negative group = 100%)” value in the series with T. gondii tachyzoites [1] (HFFs infected at MOI 5) is “below 55%”. Further, the “PVs with 16 tachyzoites” value with T. gondii tachyzoites [1] (proportion in 100 PVs) is listed as “hard to see a PV with 16 tachyzoites”. Besides, in the series with RH strain of T. gondii (BALB/c mice, 1 × 10^3 tachyzoites i.p., 4 mg/kg/day i.p. for 7 days, monitored 15 days, n = 8), the “survival time of mice compared to control group” value is given as “significantly prolonged the survival time”. The “inhibition of tachyzoite invasion compared with SDZ” value in the series on T. gondii tachyzoites [2] is “more pronounced inhibition than SDZ”. In the series with T. gondii tachyzoites [3] (setting [11]), the “number and area of plaques in contrast with DMEM group” value is “significantly reduced”; the “plaques compared to DMEM group” value is reported as “reduced”.
With `Nc1ccc(S(=O)(=O)Nc2ncccn2)cc1` [SDZ, Sulfadiazine], in the series with Toxoplasma [4], the “anti-Toxoplasma effect in vitro” value is on record as “anti-Toxoplasma effect was also observed”. In the series with IFN-γ (mouse, in vivo), the “expression of IFN-γ in spleen compared to PBS group” value was “promoted the expression”. Also, the “expression of TNF-α in spleen compared to PBS group” value in the series on TNF-α (mouse, in vivo) was “promoted the expression”. Moreover, the “expression of IL-10 in spleen compared to PBS group” value in the series on IL-10 (mouse, in vivo) is given as “inhibited the upregulation of IL-10”. The “expression of IL-4 in spleen compared to PBS group” value in the series on IL-4 (mouse, in vivo) is listed as “promoted IL-4 expression”. The “anti-Toxoplasma effect in vivo” value with Toxoplasma [5] is “anti-Toxoplasma effect was also observed”. Moreover, in the series with RH strain of T. gondii (mouse, in vivo, ip, 4 mg/kg/day), the “survival time of mice compared to control group” value was “could not prolong the survival time”. Also, in the series with T. gondii tachyzoites [3], the “number and area of plaques in contrast with DMEM group” value was “significantly reduced”; the “plaques compared to DMEM group” value is “no obvious plaque”. Further, in the series on T. gondii tachyzoites [6], the “parasite load in peritoneal fluid and tissues compared to PBS group” value is “effectively inhibit the proliferation of tachyzoites in mice”.
Take `CCCCCCCCCCCC(=O)N[C@@H](CCCCN)C(=O)NCC(=O)N[C@@H](Cc1c[nH]c2ccccc12)C(=O)N[C@@H](Cc1ccccc1)C(=O)N[C@@H](CCCCN)C(=O)N[C@@H](C)C(=O)N[C@@H](CCSC)C(=O)N[C@@H](CCCCN)C(=O)N[C@@H](CO)C(=O)N[C@H](C(=O)N[C@@H](C)C(=O)N[C@@H](CCCCN)C(=O)N[C@@H](Cc1ccccc1)C(=O)N[C@H](C(=O)N[C@@H](C)C(=O)N[C@@H](CCCCN)C(=O)N[C@@H](CCC(=O)O)C(=O)N[C@@H](CCCCN)C(=O)N[C@@H](CC(C)C)C(=O)N[C@@H](CCCCN)C(=O)N[C@@H](CCC(=O)O)C(=O)N[C@@H](Cc1cnc[nH]1)C(=O)N[C@@H](CC(C)C)C(=O)O)[C@@H](C)CC)[C@@H](C)CC` [L-C12] (Lauroyl-KGWFKAMKSIAKFIAKEKLKEHL-OH): in series [7], the “degradation after incubation in serum” value is reported as “not degraded”. The “cytotoxicity to HFFs” value in series [8] is reported as “higher cytotoxicity”. In the series on T. gondii tachyzoites [9], the “anti-T. gondii activity after serum treatment compared to control untreated with serum” value was “no significant difference; also recorded: retained substantial anti-T. gondii activity”.
